Data set [1] relates to A549. Kind of data set: Antiproliferative activity against human A549 cells assessed as reduction in cell viability at 25 uM incubated for 24 hrs by SRB assay. The format is functional, cell-based. (In SRB staining, fixed cells bind dye roughly in proportion to their protein.)
In data set [2] the target is Protein arginine N-methyltransferase 5 (Homo sapiens, UniProt O14744). Kind of data set: Inhibition of PRMT5 (unknown origin).
Data set [3] has as its system A549. Kind of data set: Inhibition of cell migration human A549 cells assessed as decrease in migration distance at 12.5 to 25 uM incubated upto 12 hrs by wound healing assay. The settings on record: dose 12.5-25 µM. The format is functional, cell-based.
Data set [4] deals with A549. Kind of data set: Induction of apoptosis in human A549 cells transfected in hnRNP E1 siRNA assessed as reduction in cell number incubated for 24 hrs by Hoechst 33258 staining based analysis. It counts as functional.
The subject of data set [5] is A549. The data set can be described thus: Anticancer activity against human A549 cells assessed as decrease in cell number incubated for 24 hrs by SRB assay. The format is functional, cell-based. The settings on record: dose 12.5-50 µM.
The next data set concerns MCF7. Kind of data set: Antiproliferative activity against human MCF7 cells assessed as inhibition of cell growth incubated for 24 hrs by SRB assay. It counts as functional, cell-based. The settings on record: MCF7, 24 h.
Data set [6] deals with A549. The data set can be described thus: Upregulation of hnRNP E1 gene expression in human A549 cells at 12.5 to 50 uM incubated for 24 hrs by Western blot analysis. The format is functional, cell-based. Particulars: dose 12.5-50 µM. A general note: In western blotting, separated proteins are transferred to a membrane and probed.
Data set [7] can be described thus: Antiproliferative activity against human L02 cells assessed as inhibition of cell growth incubated for 24 hrs by SRB assay. It counts as toxicity, cell-based.
A short description of data set [8]: Metabolic stability in human liver microsome assessed as half life measured upto 4 hrs in presence of NADPH by LC-MS/MS analysis. It counts as ADME. Particulars: liver microsomes. (In general: Microsomes from liver hold many membrane-bound enzymes, among them those of drug oxidation.)
The test system of a further data set is MDA-MB-231. The data set can be described thus: Antiproliferative activity against human MDA-MB-231 cells assessed as inhibition of cell growth incubated for 24 hrs by SRB assay. The settings on record: MDA-MB-231, 24 h. The format is functional, cell-based.
In data set [9] the test system is A549. The data set can be described thus: Induction of apoptosis in human A549 cells at 2.5 to 50 uM incubated for 24 hrs by Hoechst 33342 staining based analysis. The format is functional. Particulars: dose 2.5-50 µM.
The subject of the next data set is HepG2. Kind of data set: Antiproliferative activity against human HepG2 cells assessed as inhibition of cell growth incubated for 24 hrs by SRB assay. The format is functional, cell-based. Particulars: HepG2, 24 h.
The target in data set [10] is T1, Histone-arginine methyltransferase CARM1 (Homo sapiens, UniProt Q86X55).
T1 sequence (Q86X55 whole entry): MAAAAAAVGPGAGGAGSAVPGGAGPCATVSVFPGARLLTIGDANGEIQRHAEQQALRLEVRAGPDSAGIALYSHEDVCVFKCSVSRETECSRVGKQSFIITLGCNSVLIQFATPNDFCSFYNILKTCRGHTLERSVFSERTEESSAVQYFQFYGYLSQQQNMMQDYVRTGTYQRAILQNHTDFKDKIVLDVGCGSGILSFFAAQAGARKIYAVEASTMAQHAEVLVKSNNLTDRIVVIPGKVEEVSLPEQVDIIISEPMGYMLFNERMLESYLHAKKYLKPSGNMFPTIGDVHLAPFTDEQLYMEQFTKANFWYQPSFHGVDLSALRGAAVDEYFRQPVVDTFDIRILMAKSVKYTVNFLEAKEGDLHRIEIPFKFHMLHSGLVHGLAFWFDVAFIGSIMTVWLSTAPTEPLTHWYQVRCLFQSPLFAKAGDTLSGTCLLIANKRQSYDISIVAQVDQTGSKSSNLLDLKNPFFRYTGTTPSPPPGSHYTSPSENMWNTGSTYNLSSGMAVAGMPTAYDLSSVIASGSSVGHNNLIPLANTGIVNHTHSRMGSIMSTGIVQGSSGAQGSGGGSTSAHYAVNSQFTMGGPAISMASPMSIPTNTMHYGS
The data set can be described thus: Inhibition of PRMT4 (unknown origin).

Data set [11] relates to A549. The data set can be described thus: Inhibition of cell migration human A549 cells transfected with hnRNP E1 siRNA incubated upto 12 hrs by wound healing assay. It counts as functional, cell-based.
Data set [12] in a line: Metabolic stability in rat liver microsome assessed as half life measured upto 4 hrs in presence of NADPH by LC-MS/MS analysis. It counts as ADME. Particulars: liver microsomes.
Data set [13] concerns the target Protein arginine N-methyltransferase 1 (Homo sapiens, UniProt Q99873). Kind of data set: Inhibition of PRMT1 (unknown origin).
For data set [14], the system named is A549. Kind of data set: Antiproliferative activity against human A549 cells assessed as inhibition of cell growth incubated for 24 hrs by SRB assay. The format is functional, cell-based. The settings on record: A549, 24 h.
Data set [15] deals with A549. The data set can be described thus: Induction of apoptosis in human A549 cells assessed as nuclear fragmentation incubated for 24 hrs by Hoechst 33342 staining based analysis. The settings on record: dose 12.5-50 µM. It counts as functional, cell-based.
Data set [16] is described as follows: Half life in Sprague-Dawley rat at 10 mg/kg, po measured upto 24 hrs by LC-MS/MS analysis. The settings on record: in vivo. The format is ADME, organism-based.
A short description of data set [17]: AUC (0 to t) in Sprague-Dawley rat at 10 mg/kg, po measured upto 24 hrs by LC-MS/MS analysis. It counts as ADME, organism-based. Particulars: in vivo.
The nature of data set [18]: AUC (0 to infinity) in Sprague-Dawley rat at 10 mg/kg, po measured upto 24 hrs by LC-MS/MS analysis. The format is ADME, organism-based. Particulars: in vivo.
Data set [19] in a line: Tmax in Sprague-Dawley rat at 10 mg/kg, po measured upto 24 hrs by LC-MS/MS analysis. The format is ADME, organism-based. Particulars: in vivo.
The nature of data set [20]: Cmax in Sprague-Dawley rat at 10 mg/kg, po measured upto 24 hrs by LC-MS/MS analysis. The format is ADME, organism-based. The settings on record: in vivo.

What is called pIC50 is the negative decadic logarithm of the IC50, by convention in mol/L. The IC50 is the point on the concentration scale where inhibition reaches its midpoint. In general, half-life refers to the time in which the quantity being followed falls by half. What is called AUC(0-t) is exposure summed from dosing to a finite time, without extrapolation to infinity. High values mean high exposure, low ones low exposure. By AUC(0-inf) is commonly meant total exposure, with the tail of the curve extrapolated. Higher therefore signals more exposure. As usually defined, the Tmax is the time at which the peak concentration occurs. A word on the Cmax: it is the highest concentration seen after dosing.

pIC50: −log10 of the molar value. Activity calls are given as the source filed them. No cut-off for these calls is given here.

Sequence of Protein arginine N-methyltransferase 5 (O14744 whole entry): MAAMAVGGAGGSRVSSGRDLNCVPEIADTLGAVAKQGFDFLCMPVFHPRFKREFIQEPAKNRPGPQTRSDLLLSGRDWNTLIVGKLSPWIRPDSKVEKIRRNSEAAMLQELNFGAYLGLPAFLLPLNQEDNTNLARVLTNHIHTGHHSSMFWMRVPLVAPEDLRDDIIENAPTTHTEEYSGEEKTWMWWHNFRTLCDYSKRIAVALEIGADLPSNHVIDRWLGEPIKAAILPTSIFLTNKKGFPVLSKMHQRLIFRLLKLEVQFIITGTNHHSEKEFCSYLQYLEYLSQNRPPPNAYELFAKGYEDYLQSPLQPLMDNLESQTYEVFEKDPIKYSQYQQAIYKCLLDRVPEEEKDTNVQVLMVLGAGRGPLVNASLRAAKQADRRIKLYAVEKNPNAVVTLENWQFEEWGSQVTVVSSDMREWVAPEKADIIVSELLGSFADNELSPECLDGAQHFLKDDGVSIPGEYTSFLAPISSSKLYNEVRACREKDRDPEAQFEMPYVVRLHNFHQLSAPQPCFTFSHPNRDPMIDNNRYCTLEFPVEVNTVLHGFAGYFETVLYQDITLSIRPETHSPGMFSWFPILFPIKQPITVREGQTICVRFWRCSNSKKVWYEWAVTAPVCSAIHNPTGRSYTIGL
Sequence of Protein arginine N-methyltransferase 1 (Q99873 whole entry): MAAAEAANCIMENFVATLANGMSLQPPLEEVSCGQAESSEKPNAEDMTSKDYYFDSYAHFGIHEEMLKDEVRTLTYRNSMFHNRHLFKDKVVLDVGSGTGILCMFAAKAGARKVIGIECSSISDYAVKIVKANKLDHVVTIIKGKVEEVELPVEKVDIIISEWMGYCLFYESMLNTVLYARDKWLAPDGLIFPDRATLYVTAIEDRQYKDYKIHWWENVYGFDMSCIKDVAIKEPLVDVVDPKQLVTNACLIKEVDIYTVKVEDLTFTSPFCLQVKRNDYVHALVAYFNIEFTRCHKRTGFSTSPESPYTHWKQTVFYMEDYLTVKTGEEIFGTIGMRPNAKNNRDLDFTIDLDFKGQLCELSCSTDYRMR

For `N#Cc1ccc2ccn(C[C@H](O)CN3CCc4ccccc4C3)c2c1`, in the data set with A549 [1], the outcome was Active. The pIC50 in data set [2] was 5.92.
The like results for `COc1ccc2c(ccn2C[C@H](O)CN2CCc3ccccc3C2C)c1` (some centres undefined) were, in that order, “Active” and 4.83.
The like results for `N#Cc1cn(C[C@H](O)CN2CCc3ccccc3C2)c2ccccc12` were, in that order, “Active” and 5.68.
For `N#Cc1ccc2c(ccn2C[C@H](O)CN2CCc3ccccc3C2)c1` the same measures were “Active” and 4.92.
`CC(=O)c1cn(C[C@H](O)CN2CCc3ccccc3C2)c2ccccc12`: the outcome in the data set with A549 [1] was Active. Also, in [2], the pIC50 is 5.60.
The like results for `Cc1cc2cc(F)ccc2n1C[C@H](O)CN1CCc2ccccc2C1` were, in that order, “Active” and 4.65.
For `COc1ccc2c(c1)CCN(C[C@@H](O)Cn1ccc3cc(OC)ccc31)C2` the same measures were “Active” and 4.44.
As for `O[C@H](CN1CCc2ccc(Br)cc2C1)Cn1ccc2ccc(Br)cc21`, the outcome in the data set with A549 [1] was Active. In [2], this molecule had a pIC50 of 5.49.
The like results for `COc1ccc2c(ccn2C[C@H](O)CN2CCc3cc(OC)c(OC)cc3C2)c1` were, in that order, “Active” and 4.39.
For `Cc1ccc2ccn(C[C@H](O)CN3CCc4ccccc4C3)c2c1` the same measures were “Active” and 5.19.
As to `O[C@H](CN1CCc2ccccc2C1)Cn1ccc2ccc(Cl)cc21`, the outcome with A549 [1] was Active. This molecule showed a pIC50 in data set [2] of 6.28.
The like results for `COc1cc2c(cc1OC)CN(C[C@@H](O)Cn1ccc3ccc(Br)cc31)CC2` were, in that order, “Active” and 4.21.
For `COc1ccc2c(ccn2C[C@H](O)CN2CCc3cc(O)ccc3C2)c1` the same measures were “Active” and 6.92.
For `O[C@H](CN1CCc2ccccc2C1)Cn1ccc2ccccc21`, in the data set on A549 [1], the result was Active. In data set [2], this molecule gave a pIC50 of 6.07.
Consider `Cc1cccc2c1ccn2C[C@H](O)CN1CCc2ccccc2C1`, for which, in the data set on A549 [1], the result was Active. Also, in data set [2], the pIC50 was 5.74.
The like results for `N#Cc1cccc2c1ccn2C[C@H](O)CN1CCc2ccccc2C1` were, in that order, “Active” and 5.30.
The like results for `COc1ccc2c(ccn2C[C@H](O)CN2CCc3ccc(Br)cc3C2)c1` were, in that order, “Active” and 4.48.
As to `Cc1cc2ccccc2n1C[C@H](O)CN1CCc2ccccc2C1`, the outcome in the data set with A549 [1] was Active. This molecule also had a pIC50 in [2] of 5.89.
With `N#CCc1cn(C[C@H](O)CN2CCc3ccccc3C2)c2ccccc12`, the outcome in the data set with A549 [1] was Active. Moreover, the pIC50 in [2] was 5.39.
With `Oc1ccc2c(c1)CCN(C[C@@H](O)Cn1ccc3ccc(Br)cc31)C2`, the outcome with A549 [3], with A549 [1], in the data set with A549 [4] and in the data set on A549 [6] was Active. The Activity result is “Dose-Dependent Effect” in the data set on A549 [5], 68% with A549 [9] and “Dose-Dependent Effect” in the data set on A549 [15]. Besides, the pIC50 is 4.54 in the data set with MCF7; 4.67 with MDA-MB-231; 4.24 in the data set with HepG2; below 4.70 in data set [10]; 4.99 in [13]; 4.85 in the data set with A549 [14]. Also, the IC50 at 24 h in [7] is above 100 µM. Besides, the results for the half-life in data set [8] and in [12] were 21.8 min and 4.7 min, respectively. Besides, the result with A549 [11] was inactive.
With `O[C@H](CN1CCc2ccccc2C1)Cn1ccc2cc(F)ccc21`, the result in the data set with A549 [1] was Active. Also, the pIC50 in data set [2] is 4.73.
Take `O[C@H](CN1CCc2ccccc2C1)Cn1ccc2ccc(Br)cc21`: in the data set on A549 [1], the result was Active. Further, the pIC50 was 4.60 in the data set on MCF7; 4.22 in the data set on MDA-MB-231; 4.78 with HepG2; 6.42 in data set [2]; 4.53 in the data set with A549 [14]. Further, in data set [7], the IC50 at 24 h was above 100 µM.
Regarding `O[C@H](CN1CCc2cc(Br)ccc2C1)Cn1ccc2ccc(Br)cc21`, the outcome in the data set with A549 [1] was Active. Further, the pIC50 in data set [2] is 5.61.
Take `O=C(NC[C@H](O)CN1CCc2ccccc2C1)c1ccc2c(c1)CCN(C(=O)c1ccc(Br)cc1)C2`: the results for the half-life in data set [16], in data set [8] and in data set [12] were 139 min, 86.9 min and 10.4 min, respectively. In addition, in data set [17], the AUC(0-t) at 24 h came out at 223 ng·h/mL. Moreover, in data set [18], the AUC(0-inf) worked out at 233 ng·h/mL. In data set [19], the Tmax was 18 min. The molecule also showed a pIC50 in [2] of 8.10. In [20], this molecule had a maximum concentration (Cmax) of 77.1 ng/mL.
For the molecule `Cc1cn(C[C@H](O)CN2CCc3ccccc3C2)c2ccccc12`, the result with A549 [1] was Active. In addition, the pIC50 in data set [2] was 5.49.
Take `COc1cccc2c1ccn2C[C@H](O)CN1CCc2ccccc2C1`: the outcome with A549 [1] was Active. This molecule showed a pIC50 in [2] of 5.34.
`COc1ccc2c(c1)CCN(C[C@@H](O)Cn1ccc3ccc(Br)cc31)C2`: the result with A549 [1] was Active. In data set [2], this molecule showed a pIC50 of 4.50.
On to `CC1c2ccccc2CCN1C[C@@H](O)Cn1ccc2ccc(Br)cc21` (some centres undefined), for which the result in the data set with A549 [1] was Active.
As to `COc1ccc2c(ccn2C[C@H](O)CN2CCc3cc(Br)ccc3C2)c1`, the outcome with A549 [1] was Active. The pIC50 in data set [2] was 4.29.
For `Cc1ccc2c(ccn2C[C@H](O)CN2CCc3ccccc3C2)c1`, the result with A549 [1] was Active. The molecule also had a pIC50 in data set [2] of 6.21.
The like results for `O[C@H](CN1CCc2ccccc2C1)Cn1ccc2cc(Cl)ccc21` were, in that order, “Active” and 5.09.
As for `O[C@H](CN1CCc2ccccc2C1)Cn1ccc2c(F)cccc21`, the outcome in the data set on A549 [1] was Active. The same molecule showed a pIC50 in [2] of 5.77.
